Structures can show the parent of a compound that is named as a salt. Where two headings read alike, the source gives them in different places.
Tests used:
[1] = system: Immature Sprague-Dawley rats (female, 18 days old); test: Rat Uterotrophic/Antiuterotrophic Bioassay (uterine wet weight); assay type: in vivo; conditions: for uterine wet weight, 1 uG 17_-estradiol: 1 uG daily ip; for uterine wet weight, 10uG: 10 uG compound daily ip; for uterine wet weight, 100uG: 100 uG compound daily ip
[2] = system: Ishikawa cells; test: Ishikawa Cell Alkaline Phosphatase Assay; assay type: cell-based, human; conditions: for % Activation: compound alone, percent of response related to 1 nM 17_estradiol; for EC50: Homo sapiens, Ishikawa, cells treated for 48 h
Procedure: Ishikawa cells were maintained in DMEM/F12 (50%:50%) containing phenol red + 10% fetal bovine serum and the medium was supplemented with 2 mM Glutamax, 1% Pen/Strap and 1 mM sodium pyruvate. Five days prior to the beginning of each experiment (treatment of cells) the medium was changed to phenol red-free DMEM/F12 + 10% dextran coated charcoal stripped serum. […] Sample population for at each dose was n=8.
50_L of lysis buffer (0.1 M Tris-HCl, pH 9.8, 0.2% Triton X-100) is added to each well. […] Plates are thawed at 37°C followed by the addition of 150_L of 0.1 M Tris-HCl, pH 9.8, containing 4 mM para-nitrophenylphosphate (pNPP) to each well (final concentration, 3 mM pNPP). Absorbance and slope calculations were made using the KineticCalc Application program (Bio-Tek Instruments, Inc., Winooski, VT). Results are expressed as the mean +/- S.D. of the rate of enzyme reaction (slope) averaged over the linear portion of the kinetic reaction curve (optical density readings every 5 minutes for 30 minutes absorbance reading).

[3] = biological target: T1, TACE (Homo sapiens, UniProt P78536); test: Procedure for Measuring TACE Inhibition (fluorescent peptidyl substrate); assay type: biochemical; conditions: read-out: TACE % inhibition at 1 micromolar; 1 micromolar compound
T1 construct: purchased Immunex
T1 sequence (P78536 215-824): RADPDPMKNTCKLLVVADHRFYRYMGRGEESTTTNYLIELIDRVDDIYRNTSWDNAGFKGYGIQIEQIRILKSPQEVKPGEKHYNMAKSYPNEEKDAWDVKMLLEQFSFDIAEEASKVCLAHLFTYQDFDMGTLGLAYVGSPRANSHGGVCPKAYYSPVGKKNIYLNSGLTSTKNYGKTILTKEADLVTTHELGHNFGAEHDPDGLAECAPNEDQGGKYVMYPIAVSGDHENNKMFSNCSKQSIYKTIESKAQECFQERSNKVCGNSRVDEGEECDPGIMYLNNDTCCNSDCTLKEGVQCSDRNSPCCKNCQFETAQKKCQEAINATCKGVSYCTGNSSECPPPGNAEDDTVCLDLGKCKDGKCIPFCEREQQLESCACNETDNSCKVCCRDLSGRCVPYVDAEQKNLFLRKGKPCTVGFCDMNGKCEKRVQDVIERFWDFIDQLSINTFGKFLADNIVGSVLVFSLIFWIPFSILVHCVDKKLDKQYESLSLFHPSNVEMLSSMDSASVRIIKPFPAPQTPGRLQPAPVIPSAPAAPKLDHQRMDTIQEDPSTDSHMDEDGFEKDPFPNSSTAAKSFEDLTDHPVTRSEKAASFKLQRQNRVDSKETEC
Procedure: Using 96-well black microtiter plates, each well receives a solution composed of 10 µL TACE (Immunex, final concentration 1µg/mL), 70µL Tris buffer, pH 7.4 containing 10% glycerol (final concentration 10 mM), and 10 µL of test compound solution in DMSO (final concentration 1µM, DMSO concentration <1%) and incubated for 10 minutes at room temperature. […] The reaction is read (excitation 340 nm, emission 420 nm) for 10 min. and the increase in fluorescence over time is plotted as a linear line. The slope of the line is calculated and represents the reaction rate. The linearity of the reaction rate is confirmed (r^2 >0.85). The mean (x±sem) of the control rate is calculated and compared for statistical significance (p<0.05) with drug-treated rates using Dunnett's multiple comparison test. […]
The reaction is read (excitation 340 nm, emission 420 nm) for 10 min. and the increase in fluorescence over time is plotted as a linear line. The slope of the line is calculated and represents the reaction rate.
The linearity of the reaction rate is confirmed (r^2 >0.85). The mean (x±sem) of the control rate is calculated and compared for statistical significance (p<0.05) with drug-treated rates using Dunnett's multiple comparison test.

## C[C@]12CC[C@@H]3c4ccc(O)cc4CC[C@H]3[C@@H]1CC[C@@H]2O [17_-estradiol]
[1]; control = 30.7 mg
  uterine wet weight, 1 uG 17_-estradiol: 1 uG 17_-estradiol = 63.2 mg
[1]; control = 42.7 mg
  uterine wet weight, 1 uG 17_-estradiol: 1 uG 17_-estradiol = 98.2 mg

## Cc1c(-c2ccc(O)cc2)n(Cc2ccc(OCCN3CCCCC3)cc2)c2ccc(O)cc12 [Example 15, 2-(4-Hydroxy-phenyl)-3-methyl-1-[4-(2-piperidin-1-yl-ethoxy)-benzyl]-1H-indol-5-ol]
[2]; 48 h
  % Activation: 1% activity (1% with 1 nM 17_-estradiol)
[1]; control = 30.7 mg
  uterine wet weight, 10uG: 39.9 mg
  uterine wet weight, 100uG: 27.4 mg
[1]; 100 uG compound + 1 uG 17_ estradiol daily ip (antiestrogenicity), control = 30.7 mg
  uterine wet weight, 100uG + 1uG 17 -estradiol: 24.3 mg

## COc1ccc(S(=O)(=O)C(C)(Cc2ccc(OCCN3CCCCC3)cc2)C(=O)NO)cc1 (centres unmarked) [Example 26]
[3]
  inhibition at 1 µM: 41%

## O=C(c1ccc(OCCN2CCCCC2)cc1)c1c(-c2ccc(O)cc2)sc2cc(O)ccc12 [Raloxifene, [2-(4-hydroxyphenyl)-6-hydroxybenzo[b]thien-3-yl][4-(1-piperidinyl0ethoxy]phenyl-methanone hydrochloride]
[2]; 48 h
  % Activation: 5% activity (5% with 1 nM 17_-estradiol)
[1]; control = 42.7 mg
  uterine wet weight, 10uG: 47.5 mg
  uterine wet weight, 100uG: 43.2 mg

## CC/C(=C(\c1ccccc1)c1ccc(OCCN(C)C)cc1)c1ccccc1 [Tamoxifen]
[1]; control = 42.7 mg
  uterine wet weight, 10uG: 69.6 mg
  uterine wet weight, 100uG: 71.4 mg

## C[C@]12CC[C@@H]3c4ccc(O)cc4CC[C@H]3[C@@H]1C[C@@H](O)[C@@H]2O [estriol]
[2]; read-out: ED50 values (95% C.I.), estrogenic activity by the alkaline phosphatase method, reference standards
  EC50: 0.13 nM

## C[C@]12CC[C@@H]3c4ccc(O)cc4CC[C@H]3[C@@H]1CCC2=O [estrone]
[2]; 48 h, read-out: ED50 values (95% C.I.), estrogenic activity by the alkaline phosphatase method, reference standards
  EC50: 0.36 nM
